# Measurements published in patent US11427605B2, “Crystalline forms of 5-chloro-N4-[-2-(dimethylphosphoryl) phenyl]-N2-{2-methoxy-4-[4-(4-methylpiperazin-1-yl) piperidin-1-yl] phenyl} pyrimidine-2,4-diamine” (ARIAD Pharmaceuticals, Inc., priority 2014, dated 2022).
# Read-outs that look alike come from different tables or passages of the source.
# Columns and labels:
# [1] = 24 h
# Experimental: (§1) For each medium, a standard 1.8 mL screw cap vial was charged with circa 40 mg of the starting material, 400 μl of solvent and a magnetic stirring bar (in the cases of chloroform and dichloromethane 200 μl of solvent were used). The vials were subsequently closed and equilibrated at the corresponding temperature for 24 h while stirring. The liquid part was retrieved with a syringe and filtered (0.5 micron filter); the isolated mother liquors were diluted to two dilutions selected according to the calibration curve. Quantities of the API in the diluted solutions were determined via HPLC analysis (DAD). […] Subsequently, the separated solids were measured wet by XRPD to confirm the solid form of which the solubility was measured.
# physchem [2] = settings: thermodynamic from solid
# [3] = Dissolution rate from a powdered sample in water; assay type: physicochemical; settings: powder, 37° C.
# Experimental: For determining the dissolution rate from a powdered sample, approximately 5 mg of brigatinib (Form A or B) was weighed into a 5 mL dissolution vial and the dissolution probe was inserted into the vial. Subsequently, 4 mL of water was added at the same time the measurement was initiated. The concentration was recorded for 20 h.
# For measuring the dissolution rate from powder, the test was only performed in water for Forms A and B at 37° C., as the solubilities of Forms A and B were […] enough to permit detection.
# [4] = Dynamic vapor sorption (DVS); assay type: physicochemical; settings: for Hygroscopicity: general statement
# Experimental: In a […] vapor sorption (DVS) experiment with Form A, the sample was first dried at 0% RH for 6 hours. Then, the relative humidity was cycled from 5% to 95% RH (sorption), then to 5% RH (desorption) at a constant temperature of 25° C., with a hold time of 60 minutes per step.
# In three DVS experiments, the relative humidity was varied as follows:
# Expt. 4: 0% for 6 h→5% for 1 h→15% for 1 h→25-85% gradient over 2 h→95 for 5 h RH
# [5] = for solid form (XRPD, analyzed wet): slurry in Water, 25° C.
# Experimental: In a second set of slurry experiments, the same amounts of Form A and Form B were weighed into 1.8 mL vials, and charged with a stirring bar. After addition of the solvent, the slurries were placed at 25° C. and 50° C., under stirring. Material from the slurries was sampled at the time points of 2, 4 and 14 days (sampling from the same vial per solvent and per temperature). These materials were analyzed wet by XRPD and digital imaging.
# physchem [6] = settings: thermodynamic from solid; for solubility at 24 h: Solub
# Experimental: as §1
# Variable humidity XRPD = assay type: physicochemical
# Experimental: The temperature variation rate was 10° C./min.
# The relative humidity was increased from the starting amount, brought up to the maximum, then dried back to the minimum value. The data collection time was 41 min at each step, time starting after equilibration of the relative humidity.
# The peaks shifts were reversible at RH of about 30%. A sample of Form A was then exposed to 80% RH for 15 h. The peaks shifts had occurred after 90 min, and the extent of the shifts remained constant throughout the exposure at 80% RH for 15 h. Upon return to 10% RH, the peaks shifted to their original position. To investigate the amount of water adsorbed, a new sample of Form A was exposed for 2 h at 80% and a TGMS of this sample was measured.
# For Form B, the relative humidity was measured at 30° C. The RH % values measured were 10, 30, 50, 60, 65, 70, 75, and 80%. […] At 80% RH the conversion to Form C was completed. Upon desorption, Form C dehydrates to Form B, starting at about 30% RH. At 10% RH the conversion to Form B was completed.
# For Form C, a hydrate, the relative humidity was measured at 30° C. The experiment was performed starting at the maximum RH and dehydrated, then rehydrated back up to the maximum value. The RH % values measured were 10, 15, 20, 25, 30, 35, 40, 60, and 80%. Upon desorption, Form C dehydrated to Form B, starting at about 25% RH. At 10% RH, the conversion to Form B was complete. Upon sorption, Form B converted to Form C, starting at about 60% RH. At 80% RH the conversion to Form C was complete. The results are consistent with the corresponding experiments of Form B.
# For Form D, a hydrate, the relative humidity was measured at 30° C. The experiment was performed starting at the maximum RH and dehydrated, then rehydrated back up to the maximum value. The RH % values measured were 10, 15, 20, 25, 30, 35, 40, 60, and 80%. […] Form C dehydrated to Form B, starting at about 20% RH. At 10% RH, the conversion to Form B was complete. Upon sorption, Form B converted to Form C, starting at about 40% RH. At 80% RH, the conversion to Form C was complete.
# [7] = ground for 5 hours
# Experimental: Grinding experiments were performed to obtain amorphous brigatinib. […] In a mechanical stress test via grinding, a sample of Form A was ground for 2, 3, 4 and 5 hours. Recovered solids were analyzed by XRPD and HPLC.
# Grinding. Two grinding experiments were performed on samples of Form A with two different durations (30 and 60 min) at a frequency of 30 Hz. […] Mechanical stress via grinding experiments were also performed, with grinding times of 2, 3, 4, and 5 hours.
# Compression tests = assay type: physicochemical; settings: 3 and 6 ton/cm^2 for one minute
# Experimental: Compression tests were performed on brigatinib Form A in order to determine whether pressure-induced phase transformations or loss of crystallinity occurred. The press used was an Atlas Manual 25 Ton Hydraulic Press (from SPECAC). Experiments were carried out at 3 and 6 ton/cm^2 for one minute in each case.
# [8] = Intrinsic dissolution rate (IDR); assay type: physicochemical
# Experimental: For measuring the intrinsic dissolution rate (IDR), the starting material was tableted using a mini-IDR compression system (pION/Heath Scientific). For preparation of the tablets, approximately 11 mg of material was pressed in the cylindrical hole of a passivated stainless steel die, to a uniform, flat surface, with an exposed area of 0.072 cm^2. The pressure applied was approximately 50 bar for 3-5 min. The sample die was inserted in a cylindrical Teflon rotating disk carrier containing an embedded magnetic stirring bar at its base. The die/stirrer assembly was placed in a flat bottomed glass vial, ready for dissolution analysis.
# The dissolution rate was measured in 20 mL of solvent (medium) and the path length of the UV meter was 2 mm. Applied stirring speed during measurement was 100 rpm. Measurements were performed at 20° C. and 37° C.
# In the first series, the IDR of Forms A and B were determined in monoplicate. […] In FIGS. 30-37, the IDRs are plotted for comparison between the forms and the same medium or between various media and the same form. The IDR of each of Forms A and B in the various media increases with increasingly acidic media (see FIGS. 34-37).
# In several cases, the results were counter-intuitive. […] The results of these additional experiments are plotted in FIGS. 38-42.
# [9] = not given; remark: listed apart in the source
# [10] = 37 °C, pH 1, simulated gastric fluid
# [11] = VT-XRPD, sample started as the labelled form
# [12] = 30° C., sample started as the labelled form
smiles,measurement,setting,value
"COc1cc(N2CCC(N3CCN(C)CC3)CC2)ccc1Nc1ncc(Cl)c(Nc2ccccc2P(C)(C)=O)n1 [Form A, brigatinib]",Phase transformation on heating (VT-XRPD),25 to 200° C.,did not reveal any phase transformation
same,Solub,[1],0.1 ± 0.0 mg/mL
same,solubility,"physchem [2]; pH 1.7, simulated gastric fluid",177 mg/mL
same,solubility,"physchem [2]; pH 2.4, aqueous buffer",329 mg/mL
same,solubility,"physchem [2]; pH 3.6, aqueous buffer",173 mg/mL
same,solubility,"physchem [2]; pH 6.2, aqueous buffer",8 mg/mL
same,solubility,"physchem [2]; pH 7.2, aqueous buffer",11 mg/mL
same,Concentration at 10 min,[3],70 µg/mL
same,Concentration at 20 h,[3],140 µg/mL
same,Hygroscopicity (DVS),"[4]; 5% to 95% RH, then to 5% RH, 25° C., 60 minutes per step",not hygroscopic
same,Hygroscopicity,[4],not hygroscopic
same,"solid form (XRPD, analyzed wet)",[5]; 2 Days,A + D
same,"solid form (XRPD, analyzed wet)",[5]; 4 days,A + D
same,solubility at 24 h,"physchem [6]; 25 °C, pH 1, simulated gastric fluid",60.4 ± 2.9 mg/mL
same,solubility at 24 h,"physchem [6]; 25 °C, pH 4.5, aqueous buffer",24.4 ± 1.2 mg/mL
same,solubility at 24 h,"physchem [6]; 25 °C, pH 6.8, aqueous buffer",8.6 ± 1.4 mg/mL
same,solubility at 24 h,"physchem [6]; 25 °C, water",0.11 mg/mL
same,solubility at 24 h,physchem [6]; [10],70.6 ± 1.5 mg/mL
same,solubility,physchem [6]; [10],70 mg/mL
same,solubility at 24 h,"physchem [6]; 37 °C, pH 4.5, aqueous buffer",26 mg/mL
same,solubility,"physchem [6]; 37 °C, pH 4.5, aqueous buffer",26 mg/mL
same,solubility,"physchem [6]; 37 °C, pH 6.5, aqueous buffer",6 mg/mL
same,solubility at 24 h,"physchem [6]; 37 °C, pH 6.8, aqueous buffer",6.2 ± 0.1 mg/mL
same,solubility at 24 h,"physchem [6]; 37 °C, simulated gastric fluid",51.7 ± 0.6 mg/mL
same,solubility,physchem [6]; simulated gastric fluid,52 mg/mL
same,Phase transition with humidity (VH-XRPD),Variable humidity XRPD; 30 and 60° C.,did not show any phase transition
same,Mass loss by TGMS after humidity exposure (water adsorbed),Variable humidity XRPD; exposed for 2 h at 80% RH,0.35%
same,Water molecules adsorbed after humidity exposure,Variable humidity XRPD; exposed for 2 h at 80% RH,0.1 water molecules
same,Solid state after grinding (XRPD),[7],almost completely amorphous
same,Phase transformation under pressure (XRPD),Compression tests,no phase transitions or peak shifts
same,Purity by HPLC after compression,Compression tests,comparable to that of the starting material
same,Amount that could be dissolved in the stomach together with a 200 ml glass of water,[8]; numbers are only indicative,about 50 mg
same,Concentration reached in IDR measurement,"[8]; pH 1.0 and SGF, within 5 min",~250 µg/mL
same,Solid form stability when slurried (IDR experiments),"[8]; water, SGF, and pH 1.0 aqueous buffer",remains stable
"COc1cc(N2CCC(N3CCN(C)CC3)CC2)ccc1Nc1ncc(Cl)c(Nc2ccccc2P(C)(C)=O)n1 [Form B, brigatinib]",Temperature at which (partial) conversion to Form A was observed,[11],150 °C
same,Temperature at which conversion to Form A was complete,[11],155 °C
same,Temperature of solid-solid transition to Form A,"ambient humidity, increasing temperature, not reversible",about 150 °C
same,Solid form after DVS cycle (XRPD),[4]; Expt. 1 (5%→95%→65% RH),hydrated Form C
same,Water adsorbed during sorption,"[4]; Expt. 1 (5%→95%→65% RH), between 45-95% RH",2.26 molecules of water
same,Change in mass during desorption after about 75% RH,[4]; Expt. 2,about 5.2%
same,Gained mass during desorption until about 25% RH,[4]; Expt. 2,4.2%
same,Mass increase at 85% RH during desorption,[4]; Expt. 2,17.4%
same,Maximum change in mass as water molecules,[4]; Expt. 2,5.6 water molecules
same,Water molecules during desorption after about 75% RH,[4]; Expt. 2,about 1.7 water molecules
same,Water molecules during desorption until about 25% RH,[4]; Expt. 2,1.4 water molecules
same,Solid form after DVS cycle (XRPD),[4]; Expt. 2 (5%→95%→5% RH),mixture of Forms B and C
same,"Mass change, first sorption step","[4]; Expt. 2 (5%→95%→5% RH), between 45-85% RH",6.45%
same,"Water molecules, first sorption step","[4]; Expt. 2, between 45-85% RH",2.1 water molecules
same,"Total change in mass, second sorption step","[4]; Expt. 2, between 85% and 95% RH",16.7%
same,Total change in mass at 95% RH,[4]; Expt. 3,15.88%
same,Total change in mass at 95% RH as water molecules,[4]; Expt. 3,5.15 water molecules
same,Solid form after DVS cycle (XRPD),[4]; Expt. 3 (5%→95% RH),Forms B+C
same,"Change in mass, first step","[4]; Expt. 3 (5%→95% RH), between 45-85% RH",5.59%
same,"Water molecules, first step","[4]; Expt. 3, between 45-85% RH",1.8 water molecules
same,Maximum change in mass as water molecules,[4]; Expt. 4,7.2 water molecules
same,Solid form after DVS cycle (XRPD),[4]; Expt. 4,Forms C+D
same,Maximum change in mass,[4]; Expt. 4 (longer equilibration; up to 95% RH for 5 h),22.2%
same,Hygroscopicity,[4],hygroscopic
same,"Solid form conversion in slurry with Form A (XRPD, wet)","[5]; all organic solvents and water at 37° C., sampled at 2, 4 and 14 days",converted to Form A
same,"Solid form conversion in slurry with Form A (XRPD, wet)","[5]; water at 25° C. (aqueous environment), 2 and 4 days",converted to Form D
same,Humidity level at which Form B converts to the hydrated Forms C and D,"Variable humidity XRPD; 30° C., reversible",above 60 % RH
same,RH at which Form B starts to convert to hydrated Form C (sorption),Variable humidity XRPD; [12],about 65 % RH
same,RH at which Form C starts to dehydrate to Form B (desorption),Variable humidity XRPD; [12],about 30 % RH
same,RH at which conversion to Form B was complete (desorption),Variable humidity XRPD; [12],10 % RH
same,RH at which conversion to Form C was complete (sorption),Variable humidity XRPD; [12],80 % RH
same,Solid form after humidity exposure,[9]; 90% RH for one day,converted to a mixture of Forms C and D
same,"Solid form conversion on slurrying (XRPD, wet)","[9]; room temperature, water, HCl buffer of pH 1.0",converted to the heptahydrate Form D after 45 min
